Test results published in paper PMC5612656, “In vitro and in vivo effects of 2,4 diaminoquinazoline inhibitors of the decapping scavenger enzyme DcpS: Context-specific modulation of SMN transcript levels” (PLoS ONE, 2017).

Test system: spinal cord transcriptome
Experiment: RNA-Seq of spinal cord tissue from 2B/- and 2B/+ mice
Assay type: in vivo, mouse
Conditions: 2B-Veh vs 2B-RG3039

Nc1nc(N)c2c(OCC3CCN(Cc4c(Cl)cccc4Cl)CC3)cccc2n1 [RG3039]
log2(fold-change) Gm10309: -1.704
log2(fold-change) Gm11681: -1.051
log2(fold-change) Gm13066: -1.415
log2(fold-change) Gm16316: -0.9137
log2(fold-change) Gm16958: -0.6452
log2(fold-change) Gm21984: -0.8301
log2(fold-change) Gm26645: 0.5748
log2(fold-change) Gp2: 1.536
log2(fold-change) Gpr50: 0.6598
log2(fold-change) Gpx3: -0.9006
log2(fold-change) Gsg2: 1
log2(fold-change) Gstm1: -0.9261
log2(fold-change) Gsx1: 1.082
log2(fold-change) Hbegf: 0.4821
log2(fold-change) Heph: -0.6747
log2(fold-change) Hes5: 1.011
log2(fold-change) Heyl: 0.7294
log2(fold-change) Hif3a: -1.3266
log2(fold-change) Hist1h1c: -0.9093
log2(fold-change) Hist1h4h: -0.4829
log2(fold-change) Hpgd: 1.149
log2(fold-change) Hr: -1.031
log2(fold-change) Hsf3: -1.087
log2(fold-change) Iapp: -0.9349
log2(fold-change) Id3: 0.7631
log2(fold-change) Ier5: 0.6487
log2(fold-change) Igf1: 0.4613
log2(fold-change) Igsf1: 0.614
log2(fold-change) Il12rb1: -1.3
log2(fold-change) Itga6: 0.6885
log2(fold-change) Itgb3: 0.5631
log2(fold-change) Kcna5: -1.0224
log2(fold-change) Kcne4: 0.8611
log2(fold-change) Kdelr3: 0.5886
log2(fold-change) Kdm4dl: -1.255
log2(fold-change) Kif2c: 0.8365
log2(fold-change) Klf15: -1.065
log2(fold-change) Klhl30: 0.8074
log2(fold-change) LRRC8A: -0.627
log2(fold-change) Loxl1: 0.7115
log2(fold-change) Lrrc8a: -0.9652
log2(fold-change) Map3k6: -2.942
log2(fold-change) Matn1: -1.5615
log2(fold-change) Mcm6: 0.8445
log2(fold-change) Mertk: -0.6404
log2(fold-change) Mex3a: 0.9304
log2(fold-change) Mgmt: -0.5604
log2(fold-change) Mki67: 0.4816
log2(fold-change) Mmp14: 0.9436
log2(fold-change) Mrgprd: 1.807
log2(fold-change) Mrpl41: -1.248
log2(fold-change) Mycn: 0.9874
log2(fold-change) Ncan: 0.7942
log2(fold-change) Ncapg: 0.8309
log2(fold-change) Neil3: 0.7885
log2(fold-change) Nes: 0.5009
log2(fold-change) Notum: 0.8827
log2(fold-change) Nusap1: 0.4877
log2(fold-change) Otoa: -1.049
log2(fold-change) Pappa: 0.5579
log2(fold-change) Pbk: 0.5785
log2(fold-change) Pdk4: -1.799
log2(fold-change) Per1: -0.8684
log2(fold-change) Phactr3: -0.7376
log2(fold-change) Phyhd1: -0.7387
log2(fold-change) Pilrb2: -1.585
log2(fold-change) Pirt: 0.7729
log2(fold-change) Pmaip1: -0.9334
log2(fold-change) Pmp2: 1.429
log2(fold-change) Pnpla2: -1.095
log2(fold-change) Pnpla7: -0.626
log2(fold-change) Polr3e: -1.443
log2(fold-change) Ppp1r1b: -1.252
log2(fold-change) Prc1: 0.5813
log2(fold-change) Prodh: -0.8352
log2(fold-change) Pxmp2: -0.9238
log2(fold-change) Pycr1: 1.135
log2(fold-change) Rab11fip1: -0.4528
log2(fold-change) Rasl2-9: -0.693
log2(fold-change) Reg3b: 1.9386
log2(fold-change) Rnase1: -0.7662
log2(fold-change) Rorc: -0.6702
log2(fold-change) Rsad2: 0.8406
log2(fold-change) Scn10a: 1.7
log2(fold-change) Scrg1: -0.8008
log2(fold-change) Sdpr: -0.7672
log2(fold-change) Sds: -2.356
log2(fold-change) Serpinb5: -1.293
log2(fold-change) Serpinh1: 0.3762
log2(fold-change) Sgk1: -1.812
log2(fold-change) Shroom1: -0.6614
log2(fold-change) Slc13a3: 0.4446
log2(fold-change) Slc13a5: 0.8562
